ChEMBL document CHEMBL5131406, “New bis- and tetrakis-1,2,3-triazole derivatives: Synthesis, DNA cleavage, molecular docking, antimicrobial, antioxidant activity and acid dissociation constants” (2022)
Values after ≈ are worked out from the molar mass of the structure shown. Active and inactive are the calls of the source. The rule behind the calls is not given here.

What was measured:
[1] = Antioxidant activity assessed as DPPH radical scavenging activity at 10 to 200 ug/ml; format: functional; settings: dose 10-200 µg/ml
[2] = test system: Legionella pneumophila; experiment: Antibacterial activity against Legionella pneumophila subsp. pneumophila; format: functional
[3] = test system: DNA; experiment: Induction of Escherichia coli supercoiled pBR322 DNA cleavage assessed as increase in formation of linear form of DNA at 250 ug/ml by agarose gel electrophoresis; format: nucleic-acid assay; settings: dose 250.0 µg/ml
[4] = test system: Bacillus cereus; experiment: Antibacterial activity against Bacillus cereus; format: functional
[5] = test system: Candida albicans; experiment: Antifungal activity against Candida albicans; format: functional
[6] = test system: Enterococcus hirae; experiment: Antibacterial activity against Enterococcus hirae; format: functional
[7] = test system: Candida tropicalis; experiment: Antifungal activity against Candida tropicalis; format: functional
[8] = test system: Staphylococcus aureus; experiment: Antibacterial activity against Staphylococcus aureus; format: functional
[9] = test system: Escherichia coli; experiment: Antibacterial activity against Escherichia coli; format: functional
[10] = test system: Pseudomonas aeruginosa; experiment: Antibacterial activity against Pseudomonas aeruginosa; format: functional
[11] = Antioxidant activity assessed as ferrous ion chelating activity at 200 ug/ml; format: functional; settings: dose 200.0 µg/ml
[12] = Antioxidant activity assessed as DPPH radical scavenging activity at 200 ug/ml relative to control; format: functional; settings: dose 200.0 µg/ml
[13] = Antioxidant activity assessed as ferrous ion chelating activity at 10 ug/ml; format: functional; settings: dose 10.0 µg/ml

Compound	Activity [1]	MIC [2] [µg/mL]	Activity [3]	MIC [4] [µg/mL]	MIC [5] [µg/mL]	MIC [6] [µg/mL]	MIC [7] [µg/mL]	MIC [8] [µg/mL]	MIC [9] [µg/mL]	MIC [10] [µg/mL]	Activity [11] [%]	Activity [12] [%]	Activity [13] [%]
[N-]=[N+]=NCCc1cn(CC(=O)Nc2ccc(NC(=O)Cn3cc(CCN=[N+]=[N-])nn3)cc2)nn1	Active	32 (≈ 68.9 µM)	Active	64 (≈ 138 µM)	8 (≈ 17.2 µM)	32 (≈ 68.9 µM)	16 (≈ 34.4 µM)	64 (≈ 138 µM)	32 (≈ 68.9 µM)	64 (≈ 138 µM)	52.8	–	–
CC(C)CCc1cn(CCc2cn(CC(=O)Nc3ccc(NC(=O)Cn4cc(CCn5cc(CCC(C)C)nn5)nn4)cc3)nn2)nn1	–	16 (≈ 24.4 µM)	Active	128 (≈ 195 µM)	64 (≈ 97.4 µM)	16 (≈ 24.4 µM)	32 (≈ 48.7 µM)	32 (≈ 48.7 µM)	128 (≈ 195 µM)	32 (≈ 48.7 µM)	44.9	21.9	–
OC(Cn1cncn1)(Cn1cncn1)c1ccc(F)cc1F [FLUCONAZOLE]	–	–	–	–	0.5 (≈ 1.63 µM)	–	0.5 (≈ 1.63 µM)	–	–	–	–	–	–
O=C(Cn1cc(CCn2cc(C3CC3)nn2)nn1)Nc1ccc(NC(=O)Cn2cc(CCn3cc(C4CC4)nn3)nn2)cc1	Active	32 (≈ 53.6 µM)	Active	64 (≈ 107 µM)	128 (≈ 215 µM)	64 (≈ 107 µM)	64 (≈ 107 µM)	64 (≈ 107 µM)	128 (≈ 215 µM)	64 (≈ 107 µM)	42.8	–	–
O=C(Cn1cc(CC2CCCCC2)nn1)Nc1ccc(NC(=O)Cn2cc(CC3CCCCC3)nn2)cc1	Active	16 (≈ 30.8 µM)	Active	64 (≈ 123 µM)	16 (≈ 30.8 µM)	8 (≈ 15.4 µM)	32 (≈ 61.7 µM)	64 (≈ 123 µM)	4 (≈ 7.71 µM)	64 (≈ 123 µM)	33.8	–	–
O=C(Cn1cc(CCn2cc(C3CCCC3)nn2)nn1)Nc1ccc(NC(=O)Cn2cc(CCn3cc(C4CCCC4)nn3)nn2)cc1	Active	128 (≈ 196 µM)	Active	64 (≈ 98 µM)	32 (≈ 49 µM)	4 (≈ 6.13 µM)	4 (≈ 6.13 µM)	16 (≈ 24.5 µM)	128 (≈ 196 µM)	64 (≈ 98 µM)	43.9	–	–
CCOC(=O)c1cn(CCc2cn(CC(=O)Nc3ccc(NC(=O)Cn4cc(CCn5cc(C(=O)OCC)nn5)nn4)cc3)nn2)nn1	Active	32 (≈ 48.4 µM)	Active	32 (≈ 48.4 µM)	128 (≈ 194 µM)	64 (≈ 96.9 µM)	64 (≈ 96.9 µM)	32 (≈ 48.4 µM)	128 (≈ 194 µM)	64 (≈ 96.9 µM)	33.5	–	–
O=C(Cn1cc(C2CC2)nn1)Nc1ccc(NC(=O)Cn2cc(C3CC3)nn2)cc1	Active	128 (≈ 315 µM)	Active	64 (≈ 157 µM)	128 (≈ 315 µM)	64 (≈ 157 µM)	64 (≈ 157 µM)	128 (≈ 315 µM)	64 (≈ 157 µM)	128 (≈ 315 µM)	76.5	–	–
CCOC(=O)c1cn(CC(=O)Nc2ccc(NC(=O)Cn3cc(C(=O)OCC)nn3)cc2)nn1	Active	64 (≈ 136 µM)	Active	64 (≈ 136 µM)	64 (≈ 136 µM)	64 (≈ 136 µM)	32 (≈ 68 µM)	32 (≈ 68 µM)	128 (≈ 272 µM)	64 (≈ 136 µM)	46.5	–	–
O=C(Cn1cc(CCn2cc(CC3CCCCC3)nn2)nn1)Nc1ccc(NC(=O)Cn2cc(CCn3cc(CC4CCCCC4)nn3)nn2)cc1	Active	32 (≈ 45.1 µM)	Active	64 (≈ 90.3 µM)	8 (≈ 11.3 µM)	16 (≈ 22.6 µM)	4 (≈ 5.64 µM)	64 (≈ 90.3 µM)	128 (≈ 181 µM)	64 (≈ 90.3 µM)	48.9	–	–
O=C(Cn1cc(CCn2cc(-c3ccccc3)nn2)nn1)Nc1ccc(NC(=O)Cn2cc(CCn3cc(-c4ccccc4)nn3)nn2)cc1	Active	32 (≈ 47.9 µM)	Active	128 (≈ 191 µM)	64 (≈ 95.7 µM)	16 (≈ 23.9 µM)	64 (≈ 95.7 µM)	64 (≈ 95.7 µM)	128 (≈ 191 µM)	64 (≈ 95.7 µM)	27.1	–	–
CC1(C)S[C@@H]2[C@H](NC(=O)[C@H](N)c3ccccc3)C(=O)N2[C@H]1C(=O)O [AMPICILLIN]	–	0.5 (≈ 1.43 µM)	–	1 (≈ 2.86 µM)	–	0.5 (≈ 1.43 µM)	–	1 (≈ 2.86 µM)	0.5 (≈ 1.43 µM)	0.5 (≈ 1.43 µM)	–	–	–
O=C(Cn1cc(CCn2cc(CCc3ccccc3)nn2)nn1)Nc1ccc(NC(=O)Cn2cc(CCn3cc(CCc4ccccc4)nn3)nn2)cc1	Active	64 (≈ 88.3 µM)	Active	128 (≈ 177 µM)	64 (≈ 88.3 µM)	64 (≈ 88.3 µM)	16 (≈ 22.1 µM)	64 (≈ 88.3 µM)	128 (≈ 177 µM)	64 (≈ 88.3 µM)	17.3	–	–
O=C(Cn1cc(CCn2cc(CCBr)nn2)nn1)Nc1ccc(NC(=O)Cn2cc(CCn3cc(CCBr)nn3)nn2)cc1	Active	8 (≈ 11 µM)	Active	64 (≈ 87.6 µM)	8 (≈ 11 µM)	32 (≈ 43.8 µM)	32 (≈ 43.8 µM)	64 (≈ 87.6 µM)	128 (≈ 175 µM)	64 (≈ 87.6 µM)	45.6	–	–
O=C(Cn1cc(CCc2ccccc2)nn1)Nc1ccc(NC(=O)Cn2cc(CCc3ccccc3)nn2)cc1	Active	64 (≈ 120 µM)	Active	32 (≈ 59.9 µM)	64 (≈ 120 µM)	64 (≈ 120 µM)	64 (≈ 120 µM)	32 (≈ 59.9 µM)	128 (≈ 239 µM)	16 (≈ 29.9 µM)	41.4	–	–
CC(C)CCc1cn(CC(=O)Nc2ccc(NC(=O)Cn3cc(CCC(C)C)nn3)cc2)nn1	Active	32 (≈ 68.6 µM)	Active	64 (≈ 137 µM)	64 (≈ 137 µM)	32 (≈ 68.6 µM)	32 (≈ 68.6 µM)	64 (≈ 137 µM)	128 (≈ 274 µM)	64 (≈ 137 µM)	70.8	–	22
O=C(Cn1cc(-c2ccccc2)nn1)Nc1ccc(NC(=O)Cn2cc(-c3ccccc3)nn2)cc1	Active	16 (≈ 33.4 µM)	Active	64 (≈ 134 µM)	64 (≈ 134 µM)	128 (≈ 267 µM)	32 (≈ 66.9 µM)	64 (≈ 134 µM)	64 (≈ 134 µM)	64 (≈ 134 µM)	40.1	–	–
O=C(Cn1cc(C2CCCC2)nn1)Nc1ccc(NC(=O)Cn2cc(C3CCCC3)nn2)cc1	Active	32 (≈ 69.2 µM)	Active	64 (≈ 138 µM)	64 (≈ 138 µM)	32 (≈ 69.2 µM)	32 (≈ 69.2 µM)	64 (≈ 138 µM)	128 (≈ 277 µM)	64 (≈ 138 µM)	67.1	–	20.6
O=C(Cn1cc(CCBr)nn1)Nc1ccc(NC(=O)Cn2cc(CCBr)nn2)cc1	–	32 (≈ 59.2 µM)	Active	64 (≈ 118 µM)	64 (≈ 118 µM)	32 (≈ 59.2 µM)	32 (≈ 59.2 µM)	64 (≈ 118 µM)	128 (≈ 237 µM)	64 (≈ 118 µM)	30.4	30.5	–
